According to US8119642B2, “Structurally rigid dopamine D3 receptor selective ligands and process for making them” (The United States of America as represented by the …, priority 2002, dated 2012):
Read-outs that look alike come from different tables or passages of the source.

Legend:
[1] = target: T1, human D2-long dopamine receptor (Homo sapiens, UniProt P14416); assay: Binding in cloned human D2 receptors in HEK cells; conditions: 125I-IABN
T1 construct: expressed in transfected cells
Description: (§1) Human dopamine D2-long (“D2”) and D3 ([…]) receptors were expressed in HEK cells. In brief, stably transfected HEK cells expressing the human D2-long and the D3 dopamine receptor were developed using the pIRES bicistronic expression vector (CLONTECH; Palo Alto, Calif.). […] For comparison, human dopamine D4 (“D4”) receptors were obtained from HEK 293 cells stably transfected with a PCR product o'f a human cDNA coding for the D4.4 form of the human D4 dopamine receptor.

[2] = target: T2, human D3 dopamine receptor (Homo sapiens, UniProt P35462); assay: Binding in cloned human D3 receptors in HEK cells; conditions: for D2/D3: ratio of D2 to D3 binding values
T2 construct: expressed in transfected cells
T2 sequence (P35462 whole entry): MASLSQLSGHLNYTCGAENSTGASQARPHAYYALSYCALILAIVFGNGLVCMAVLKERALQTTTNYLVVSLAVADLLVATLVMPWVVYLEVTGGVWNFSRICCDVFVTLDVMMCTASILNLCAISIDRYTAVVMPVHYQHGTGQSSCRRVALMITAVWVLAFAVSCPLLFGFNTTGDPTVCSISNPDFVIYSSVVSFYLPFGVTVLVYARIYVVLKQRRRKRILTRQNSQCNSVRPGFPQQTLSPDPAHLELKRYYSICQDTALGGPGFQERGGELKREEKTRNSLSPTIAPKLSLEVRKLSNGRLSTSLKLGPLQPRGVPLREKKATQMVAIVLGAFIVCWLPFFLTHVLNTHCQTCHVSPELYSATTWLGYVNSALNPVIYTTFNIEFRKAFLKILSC
Description: as §1

[3] = target: T3, D4.4 form of the human D4 dopamine receptor (Homo sapiens, UniProt P21917); assay: Binding in cloned human D4 receptors in HEK cells; conditions: cloned human D4.4 receptors in HEK 293 cells
T3 construct: expressed in transfected cells
T3 sequence (P21917 1-419): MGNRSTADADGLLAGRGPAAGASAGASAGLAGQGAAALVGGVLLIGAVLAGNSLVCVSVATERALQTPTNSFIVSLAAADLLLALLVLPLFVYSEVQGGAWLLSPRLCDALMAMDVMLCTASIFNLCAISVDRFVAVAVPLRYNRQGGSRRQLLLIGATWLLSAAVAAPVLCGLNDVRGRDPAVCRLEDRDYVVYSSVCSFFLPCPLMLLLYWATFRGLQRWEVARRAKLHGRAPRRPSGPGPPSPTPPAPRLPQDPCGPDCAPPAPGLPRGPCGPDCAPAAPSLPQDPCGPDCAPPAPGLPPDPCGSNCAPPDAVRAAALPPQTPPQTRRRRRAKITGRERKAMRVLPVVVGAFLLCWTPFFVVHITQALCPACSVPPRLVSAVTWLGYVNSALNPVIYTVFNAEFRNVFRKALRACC
Experimental: Human dopamine D2-long (“D2”) and D3 ([…]) receptors were expressed in HEK cells. In brief, stably transfected HEK cells expressing the human D2-long and the D3 dopamine receptor were developed using the pIRES bicistronic expression vector (CLONTECH; Palo Alto, Calif.). The level of expression of D2 or D3 receptors was determined to be greater than 2,000 fmoles/mg protein. For comparison, human dopamine D4 (“D4”) receptors were obtained from HEK 293 cells stably transfected with a PCR product o'f a human cDNA coding for the D4.4 form of the human D4 dopamine receptor. The density of binding sites is approximately 1000 fmol/mg protein.
Methods for performing in vitro dopamine receptor binding studies are described in Huang et al. J. Med. Chem. 44:1815-1826 (2001) and Luedtke et al. Synapse 38:438-439 (2000), the contents of which are hereby incorporated by reference. […] Therefore, ^125I-IABN appears to be a high affinity, selective antagonist at D2-like dopamine receptors.

sigma σ2 binding sites = conditions: cited from earlier work
sigma σ1 binding sites = conditions: cited from earlier work
[4] = target: T4, human D4.4 dopamine receptors (Homo sapiens, UniProt P21917); conditions: HEK 293 cells; cited from earlier work
T4 construct: expressed in transfected cells; host or cells: HEK 293 cells
T4 sequence (P21917 1-419): T3 sequence (P21917 1-419)

D1a dopamine receptors = D1a dopamine receptors (Homo sapiens, UniProt P21728); conditions: cited from earlier work
D1a dopamine receptors, sequence (P21728 whole entry): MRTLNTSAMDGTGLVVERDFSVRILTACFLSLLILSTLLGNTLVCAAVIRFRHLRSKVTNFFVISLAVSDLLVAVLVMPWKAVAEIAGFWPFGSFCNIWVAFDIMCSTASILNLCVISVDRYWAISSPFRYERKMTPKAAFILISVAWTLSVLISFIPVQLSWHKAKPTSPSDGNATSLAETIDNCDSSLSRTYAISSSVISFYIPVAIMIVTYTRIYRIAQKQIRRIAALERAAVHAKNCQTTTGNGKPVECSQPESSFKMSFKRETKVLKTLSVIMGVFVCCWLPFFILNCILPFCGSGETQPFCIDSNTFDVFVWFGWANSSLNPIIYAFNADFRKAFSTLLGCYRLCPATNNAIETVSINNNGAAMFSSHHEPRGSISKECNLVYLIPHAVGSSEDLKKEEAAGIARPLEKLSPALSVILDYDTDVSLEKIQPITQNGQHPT

hD3 = target: T5, hD3 (Homo sapiens, UniProt P35462); assay: D3 functional assay, stimulation of mitogenesis in CHO cells (agonist assay); format: cell-based; conditions: for EC50: [3H]thymidine, read-out: Agonist EC50 (nM) ± S.E.M.
T5 construct: expressed in transfected cells; host or cells: CHOp- cells, kept under G418
T5 sequence (P35462 whole entry): as the sequence (P35462 whole entry) above
Experimental: The cells were incubated at 37° C. in α-MEM with 10% FBS, 0.05% penicillin-streptomycin, and 200 μg/mL of G418. After 48 hours, the cells were rinsed twice with serum-free α-MEM and incubated for 24 hours at 37° C. In the functional assay for agonism, the medium was removed and replaced with 90 μl of serum-free α-MEM and 10 μl of test compound in sterile water; in the antagonist assay, the test compound was diluted in sterile water plus 30 nM quinpirole. After another 24-hour incubation at 37° C., 0.25 μCi of [^3H]thymidine was added to each well and the plates were further incubated for 2 hours at 37° C. The cells were then trypsinized, and the plates were filtered and counted as usual in the art. Quinpirole was run on every plate as an internal standard.

[5] = cloned human D3 receptors in HEK cells, 125I-IABN, read-out: D3 binding data

T1 sequence (P14416 whole entry): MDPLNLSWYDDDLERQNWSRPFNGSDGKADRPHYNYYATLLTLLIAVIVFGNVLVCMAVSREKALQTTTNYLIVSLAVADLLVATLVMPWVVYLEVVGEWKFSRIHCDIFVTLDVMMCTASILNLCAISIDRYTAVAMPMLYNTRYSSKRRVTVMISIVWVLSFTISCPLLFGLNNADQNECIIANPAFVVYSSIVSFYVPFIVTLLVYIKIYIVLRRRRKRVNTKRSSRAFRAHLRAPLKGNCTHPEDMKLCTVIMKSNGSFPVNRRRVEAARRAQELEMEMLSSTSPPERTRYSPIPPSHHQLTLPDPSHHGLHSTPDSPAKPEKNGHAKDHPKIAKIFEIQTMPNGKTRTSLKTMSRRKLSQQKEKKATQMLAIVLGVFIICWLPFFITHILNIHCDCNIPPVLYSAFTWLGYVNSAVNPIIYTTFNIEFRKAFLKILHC

Structure (SMILES): O=C(NC/C=C\CN1CCN(c2cccc(Cl)c2Cl)CC1)c1ccc2c(c1)Cc1ccccc1-2 [JJC 2-085]
- Ki [1]: 61.1 ± 19.2 nM
- Ki [2, 5]: 3.8 ± 1.4 nM

Structure (SMILES): O=C(NC/C=C/CN1CCN(c2cccc(Cl)c2Cl)CC1)c1ccccc1I [PG01018]
- Ki [1]: 12.7 ± 4.1 nM

Structure (SMILES): O=C(NC/C=C/CN1CCN(c2cccc(Cl)c2Cl)CC1)c1cnc2ccccc2n1 [PG01020]
- Ki [3]: 1110 ± 555 nM
- Ki [1]: 70 ± 7.6 nM

Structure (SMILES): O=C(NC/C=C/CN1CCN(c2cccc(Cl)c2Cl)CC1)c1ccc(F)cc1 [PG01012]
- Ki [1]: 8.1 ± 2.7 nM

Structure (SMILES): O=C(NC/C=C/CN1CCN(c2cccc(Cl)c2Cl)CC1)c1ccc([N+](=O)[O-])cc1 [EEC 027]
- Ki [3]: 461 ± 187 nM
- Ki [2, 5]: 0.6 ± 0.2 nM

Structure (SMILES): O=C(NCC#CCN1CCN(c2cccc(Cl)c2Cl)CC1)c1ccccc1 [JJC 2-062]
- Ki [1]: 491 ± 108 nM
- Ki [2, 5]: 127 ± 10 nM

Structure (SMILES): O=C(NC/C=C/CN1CCN(c2cccc(Cl)c2Cl)CC1)c1cc2ccccc2s1 [PG01030]
- Ki [2]: 1.3 ± 0.5 nM

Structure (SMILES): O=C(NC/C=C/CN1CCN(c2cccc(Cl)c2Cl)CC1)c1ccccc1[N+](=O)[O-] [PG01029]
- Ki [1]: 10.5 ± 4.5 nM

Structure (SMILES): Nc1ccccc1C(=O)NC/C=C/CN1CCN(c2cccc(Cl)c2Cl)CC1 [PG01038]
- Ki [1]: 25.6 ± 6.8 nM
- Ki [2, 5]: 2.7 ± 0.8 nM

Structure (SMILES): O=C(NC/C=C/CN1CCN(c2cccc(Cl)c2Cl)CC1)c1ccncc1 [PG01035]
- Ki [1]: 17.2 ± 4.2 nM

Structure (SMILES): COc1cc([125I])cc(C(=O)NC2CC3CCCC(C2)N3Cc2ccccc2)c1OC (stereo not drawn) [IABN]
- affinity for sigma σ2 binding sites (sigma σ2 binding sites): low affinity
- affinity for sigma σ1 binding sites (sigma σ1 binding sites): low affinity
- fold lower affinity at human D4.4 than at D2 and D3 receptors [4]: 7- to 10 fold
- affinity for D1a dopamine receptors (D1a dopamine receptors): low affinity

Structure (SMILES): O=C(NC/C=C/CN1CCN(c2cccc(Cl)c2Cl)CC1)c1ccccc1Cl [PG01009]
- Ki [1]: 13.1 ± 5.5 nM

Structure (SMILES): O=C(NC/C=C/CN1CCN(c2cccc(Cl)c2Cl)CC1)c1ccc(-c2cccnc2)cc1 [PG01041]
- Ki [3]: 486 ± 157 nM
- Ki [1]: 63.3 ± 16.5 nM

Structure (SMILES): O=C(NC/C=C/CN1CCN(c2cccc(Cl)c2Cl)CC1)c1cccc(I)c1 [EEC 019]
- Ki [2, 5]: 3.9 ± 1.2 nM

Structure (SMILES): O=C(NCC=CCN1CCN(c2cccc(Cl)c2Cl)CC1)c1ccc(I)cc1 [EEC 017, N-{4-[4-(2,3-Dichloro-phenyl)-piperazin-1-yl]-but-2-enyl}-4-iodo-benzamide]
- Ki [1]: 35.4 ± 7.6 nM
- Ki [2, 5]: 4.2 ± 1.5 nM
- D2/D3 [2]: 8

Structure (SMILES): O=C(NC/C=C/CN1CCN(c2cccc(Cl)c2Cl)CC1)c1ccccn1 [PG01034]
- Ki [1]: 31.2 ± 3.1 nM
- Ki [2]: 2 ± 0.6 nM

Structure (SMILES): COc1ccc(C(=O)NC/C=C/CN2CCN(c3cccc(Cl)c3Cl)CC2)cc1 [EEC 067]
- Ki [1]: 34.7 ± 11.4 nM

Structure (SMILES): O=C(NC/C=C/CN1CCN(c2cccc(Cl)c2Cl)CC1)c1cccc(Cl)c1 [EEC 063]
- Ki [2, 5]: 2.1 ± 1.1 nM

Structure (SMILES): O=C(NCC#CCN1CCN(c2cccc(Cl)c2Cl)CC1)c1cccc2c1-c1ccccc1C2 [JJC 2-077]
- Ki [1]: 592 ± 27 nM
- Ki [2, 5]: 318 ± 32 nM

Structure (SMILES): O=C(NCC#CCN1CCN(c2cccc(Cl)c2Cl)CC1)c1ccc2c(c1)Cc1ccccc1-2 [JJC 2-078]
- Ki [1]: 1650 ± 692 nM
- Ki [2, 5]: 41.5 ± 5.4 nM

Structure (SMILES): O=C(NC/C=C/CN1CCN(c2cccc(Cl)c2Cl)CC1)c1ccccc1 [JJC 2-068]
- Ki [2, 5]: 0.6 ± 0.1 nM
- EC50 (hD3): > 10000 nM

Structure (SMILES): O=C(NC/C=C/CN1CCN(c2cccc(Cl)c2Cl)CC1)c1ccc2c(c1)Cc1ccccc1-2 [JJC 2-071]
- Ki [1]: 186 ± 8 nM
- Ki [2, 5]: 3.4 ± 2.9 nM
- % Max Stim. ± S.E.M. (hD3): 44.1 ± 0.9%

Structure (SMILES): O=C(NC/C=C/CN1CCN(c2cccc(Cl)c2Cl)CC1)c1ccc(-c2ccccn2)cc1 [PG01037]
- Ki [3]: 505 ± 62.5 nM
- Ki [1]: 81.9 ± 20.7 nM

Structure (SMILES): O=C(NC/C=C/CN1CCN(c2cccc(Cl)c2Cl)CC1)c1ccccc1O [PG01025]
- Ki [1]: 7.3 ± 3.2 nM

Structure (SMILES): O=C(NCC=CCN1CCN(c2cccc(Cl)c2Cl)CC1)c1ccc(O)cc1 [PG01015, N-{4-[4-(2,3-Dichloro-phenyl)-piperazin-1-yl]-but-2-enyl}-4-hydroxy-benzamide]
- Ki [3]: 356 ± 26.5 nM
- Ki [1]: 13.7 ± 4.8 nM
- Ki [2]: 0.4 nM
- D2/D3 [2]: 34

Structure (SMILES): O=C(NC/C=C/CN1CCN(c2cccc(Cl)c2Cl)CC1)c1cccnc1 [PG01022]
- Ki [1]: 11.2 ± 5.6 nM

Structure (SMILES): O=C(NC/C=C/CN1CCN(c2cccc(Cl)c2Cl)CC1)c1ccc(Cl)cc1 [PG01007]
- Ki [1]: 25 ± 10.8 nM
- Ki [2, 5]: 1.6 ± 1 nM

Structure (SMILES): COc1ccccc1C(=O)NC/C=C/CN1CCN(c2cccc(Cl)c2Cl)CC1 [PG01027]
- Ki [1]: 5.3 ± 3 nM

Structure (SMILES): O=C(NC/C=C/CN1CCN(c2cccc(Cl)c2Cl)CC1)c1cc2ccccc2o1 [PG01055]
- Ki [1]: 101 ± 16.9 nM

Structure (SMILES): O=C(NC/C=C\CN1CCN(c2cccc(Cl)c2Cl)CC1)c1ccccc1 [JJC 2-083]
- EC50 (hD3): > 10000 nM

Structure (SMILES): COc1cccc(C(=O)NC/C=C/CN2CCN(c3cccc(Cl)c3Cl)CC2)c1 [EEC 069]
- Ki [1]: 56.9 ± 19.1 nM
- Ki [2, 5]: 4 ± 1.6 nM
